Structures can show the parent of a compound that is named as a salt.
Assays:
[1] = target: T1, human phosphodiesterase 5 (PDE 5) (Homo sapiens, UniProt O76074); test: Inhibition of human phosphodiesterase 5 (PDE 5) (B-3); type: biochemical; conditions: PDE 5 preparation from human platelets; [8-3H] cGMP substrate, SPA; in some cases means of individual determinations
T1 construct: PDE 5 preparations are obtained from human platelets by disruption; from tissue; host or cells: human platelets (Mono Q ion exchange fractions with PDE 5 activity)
Description: B-3. Inhibition of Human Phosphodiesterase 5 (PDE 5)
PDE 5 preparations are obtained from human platelets by disruption (Microfluidizer®, 800 bar, 3 passes), followed by centrifugation (75 000 g, 60 min, 4° C.) and ion exchange chromatography of the supernatant on a Mono Q 10/10 column (linear sodium chloride gradient, elution with a 0.2-0.3M solution of sodium chloride in buffer (20 mM Hepes pH 7.2, 2 mM magnesium chloride). Fractions having PDE 5 activity are combined (PDE 5 preparation) and stored at −80° C.
To determine their in vitro action on human PDE 5, the test substances are dissolved in 100% DMSO and serially diluted. Typically, dilution series (1:3) from 200 μM to 0.091 μM are prepared (resulting final concentrations in the test: 4 μM to 0.0018 μM). In each case 2 μl of the diluted substance solutions are placed into the wells of microtitre plates (Isoplate-96/200 W; Perkin Elmer). Subsequently, 50 μl of a dilution of the above-described PDE 5 preparation are added. The dilution of the PDE 5 preparation is chosen such that during the later incubation less than 70% of the substrate are converted (typical dilution: 1:100; dilution buffer: 50 mM tris/hydrochloric acid pH 7.5, 8.3 mM magnesium chloride, 1.7 mM EDTA, 0.2% BSA). The substrate, [8-^3H] cyclic guanosine-3′,5′-monophosphate (1 μCi/μl; Perkin Elmer), is diluted 1:2000 with assay buffer (50 mM tris/hydrochloric acid pH 7.5, 8.3 mM magnesium chloride, 1.7 mM EDTA) to a concentration of 0.0005 μCi/μl. By addition of 50 μl (0.025 μCi) of the diluted substrate, the enzyme reaction is finally started. The test mixtures are incubated at room temperature for 60 min and the reaction is stopped by adding 25 μl of a suspension of 18 mg/ml yttrium scintillation proximity beads in water (phosphodiesterase beads for SPA assays, RPNQ 0150, Perkin Elmer). The microtitre plates are sealed with a film and left to stand at room temperature for 60 min. Subsequently, the plates are analysed for 30 s per well in a Microbeta scintillation counter (Perkin Elmer). IC50 values are determined using the graphic plot of the substance concentration against percentage PDE 5 inhibition.

[2] = target: T2, recombinant guanylate cyclase reporter cell line (Rattus norvegicus, UniProt P19686+P20595); test: Effect on a recombinant guanylate cyclase reporter cell line (B-2); type: cell-based; conditions: MEC = minimum effective concentration, in some cases mean values for individual determinations
T2 construct: expressed in transfected cells
T2 sequence (P19686 1-690): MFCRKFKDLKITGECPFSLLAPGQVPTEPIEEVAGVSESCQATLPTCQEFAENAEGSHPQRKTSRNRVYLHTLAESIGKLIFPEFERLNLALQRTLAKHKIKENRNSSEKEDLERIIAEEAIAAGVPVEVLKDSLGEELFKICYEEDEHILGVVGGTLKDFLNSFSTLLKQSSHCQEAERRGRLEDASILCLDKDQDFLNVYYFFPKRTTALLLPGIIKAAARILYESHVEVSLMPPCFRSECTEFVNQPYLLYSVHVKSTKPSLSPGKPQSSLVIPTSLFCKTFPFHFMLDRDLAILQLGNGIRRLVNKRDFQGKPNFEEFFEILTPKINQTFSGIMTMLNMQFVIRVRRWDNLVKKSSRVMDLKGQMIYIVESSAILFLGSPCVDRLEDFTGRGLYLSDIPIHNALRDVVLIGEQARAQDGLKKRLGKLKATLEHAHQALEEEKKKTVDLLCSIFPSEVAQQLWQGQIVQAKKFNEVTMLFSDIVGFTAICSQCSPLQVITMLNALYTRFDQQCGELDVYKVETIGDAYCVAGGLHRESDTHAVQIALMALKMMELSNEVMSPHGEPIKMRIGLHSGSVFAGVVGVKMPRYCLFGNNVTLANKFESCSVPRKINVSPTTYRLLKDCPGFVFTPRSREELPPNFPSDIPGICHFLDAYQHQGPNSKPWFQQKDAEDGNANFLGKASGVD
T2 sequence (P20595 1-619): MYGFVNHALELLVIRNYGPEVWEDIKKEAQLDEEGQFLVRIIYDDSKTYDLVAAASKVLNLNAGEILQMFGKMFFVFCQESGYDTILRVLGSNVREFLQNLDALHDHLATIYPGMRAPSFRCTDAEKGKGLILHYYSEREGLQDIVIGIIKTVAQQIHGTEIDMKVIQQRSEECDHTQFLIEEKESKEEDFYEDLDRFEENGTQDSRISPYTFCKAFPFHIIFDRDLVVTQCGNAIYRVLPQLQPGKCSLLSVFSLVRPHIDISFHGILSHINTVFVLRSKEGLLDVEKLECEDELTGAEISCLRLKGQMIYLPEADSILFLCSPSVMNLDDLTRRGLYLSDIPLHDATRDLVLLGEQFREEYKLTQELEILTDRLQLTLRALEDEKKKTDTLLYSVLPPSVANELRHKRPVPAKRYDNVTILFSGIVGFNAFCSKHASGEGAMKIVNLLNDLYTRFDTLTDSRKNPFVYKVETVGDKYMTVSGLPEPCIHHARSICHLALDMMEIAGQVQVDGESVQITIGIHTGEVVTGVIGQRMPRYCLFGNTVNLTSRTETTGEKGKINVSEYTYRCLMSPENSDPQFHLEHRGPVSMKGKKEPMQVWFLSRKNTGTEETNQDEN
Description: B-2. Effect on a Recombinant Guanylate Cyclase Reporter Cell Line
The cellular activity of the compounds according to the invention is determined using a recombinant guanylate cyclase reporter cell line, as described in F. Wunder et al., Anal. Biochem. 339, 104-112 (2005).
Representative MEC values (MEC=minimum effective concentration) for the compounds of the invention are shown in Table 1 below (in some cases as mean values for individual determinations): […]

SMILES | IC50 [1] [nM] | MEC [2] [µM]
Cc1nc2c(OCc3c(F)ccc(F)c3F)cccn2c1-c1nc(NCC(C)(C)N)c2c(n1)NC(=O)C2(C)C [Example 31, 4-[(2-Amino-2-methylpropyl)amino]-5,5-dimethyl-2-{2-methyl-8-[(2,3,6-trifluorobenzyl)oxy]imidazo[1,2-a]pyridin-3-yl}-5,7-dihydro-6H-pyrrolo[2,3-d]pyrimidin-6-one formate] | 1.2 | –
Cc1nc2c(OCc3c(F)cccc3F)cccn2c1-c1nc(O)c2c(n1)NC(=O)C2(C)C(F)(F)F (racemic) [Example 8, rac-2-{8-[(2,6-Difluorobenzyl)oxy]-2-methylimidazo[1,2-a]pyridin-3-yl}-4-hydroxy-5-methyl-5-(trifluoromethyl)-5,7-dihydro-6H-pyrrolo[2,3-d]pyrimidin-6-one trifluoroacetate] | 120 | 1
Cc1nc2c(OCc3c(F)cccc3F)cccn2c1-c1nc(CNS(C)(=O)=O)c2c(n1)NC(=O)C2(C)C [Example 65, N-[(2-{8-[(2,6-Difluorobenzyl)oxy]-2-methylimidazo[1,2-a]pyridin-3-yl}-5,5-dimethyl-6-oxo-6,7-dihydro-5H-pyrrolo[2,3-d]pyrimidin-4-yl)methyl]methanesulphonamide] | 68 | 3
Cc1nc2c(OCc3c(F)cccc3F)cccn2c1-c1nc(NCC2(N)CC2)c2c(n1)NC(=O)C2(C)C [Example 42, 4-{[(1-Aminocyclopropyl)methyl]amino}-2-{8-[(2,6-difluorobenzyl)oxy]-2-methylimidazo[1,2-a]pyridin-3-yl}-5,5-dimethyl-5,7-dihydro-6H-pyrrolo[2,3-d]pyrimidin-6-one] | 6 | 0.1
Cc1nc2c(OCc3c(F)cccc3F)cccn2c1-c1nc(NC[C@@H](O)CO)c2c(n1)NC(=O)C2(C)C [Example 23, 2-{8-[(2,6-difluorobenzyl)oxy]-2-methylimidazo[1,2-a]pyridin-3-yl}-4-{[(2R)-2,3-dihydroxypropyl]amino}-5,5-dimethyl-5,7-dihydro-6H-pyrrolo[2,3-d]pyrimidin-6-one] | 8 | 3
Cc1nc2c(OCc3c(F)cccc3F)cccn2c1-c1nc2c(c(N3CCC[C@@H]3CO)n1)C(C)(C)C(=O)N2 [Example 37, 2-{8-[(2,6-difluorobenzyl)oxy]-2-methylimidazo[1,2-a]pyridin-3-yl}-4-[(2R)-2-(hydroxymethyl)pyrrolidin-1-yl]-5,5-dimethyl-5,7-dihydro-6H-pyrrolo[2,3-d]pyrimidin-6-one] | 21 | 1
Cc1nc2c(OCc3c(F)cccc3F)cccn2c1-c1nc2c(c(C(=O)NC3CC3)n1)C(C)(C)C(=O)N2 [Example 55, N-Cyclopropyl-2-{8-[(2,6-difluorobenzyl)oxy]-2-methylimidazo[1,2-a]pyridin-3-yl}-5,5-dimethyl-6-oxo-6,7-dihydro-5H-pyrrolo[2,3-d]pyrimidine-4-carboxamide] | 4 | 0.3
Cc1nc2c(OCc3c(F)cccc3F)cccn2c1-c1nc2c(c(OCCO)n1)C(C)(C)C(=O)N2 [Example 47, 2-{8-[(2,6-Difluorobenzyl)oxy]-2-methylimidazo[1,2-a]pyridin-3-yl}-4-(2-hydroxyethoxy)-5,5-dimethyl-5,7-dihydro-6H-pyrrolo[2,3-d]pyrimidin-6-one] | – | 0.3
Cc1nc2c(OCc3c(F)ccc(F)c3F)cccn2c1-c1nc(C#CC2CC2)c2c(n1)NC(=O)C2(C)C [Example 70, 4-(Cyclopropylethynyl)-5,5-dimethyl-2-{2-methyl-8-[(2,3,6-trifluorobenzyl)oxy]imidazo[1,2-a]pyridin-3-yl}-5,7-dihydro-6H-pyrrolo[2,3-d]pyrimidin-6-one] | 430 | –
Cc1nc2c(OCc3c(F)ccc(F)c3F)cccn2c1-c1nc2c(c(OCCC(F)(F)F)n1)C(C)(C)C(=O)N2 [Example 77, 5,5-Dimethyl-2-{2-methyl-8-[(2,3,6-trifluorobenzyl)oxy]imidazo[1,2-a]pyridin-3-yl}-4-(3,3,3-trifluoropropoxy)-5,7-dihydro-6H-pyrrolo[2,3-d]pyrimidin-6-one] | 140 | –
Cc1nc2c(OCc3c(F)ccc(F)c3F)cccn2c1-c1nc2c(c(OCC3CC3)n1)C(C)(C)C(=O)N2 [Example 76, 4-(Cyclopropylmethoxy)-5,5-dimethyl-2-{2-methyl-8-[(2,3,6-trifluorobenzyl)oxy]imidazo[1,2-a]pyridin-3-yl}-5,7-dihydro-6H-pyrrolo[2,3-d]pyrimidin-6-one] | 46 | –
CCCc1nc(-c2c(C)nc3c(OCc4c(F)ccc(F)c4F)cccn23)nc2c1C(C)(C)C(=O)N2 [Example 72, 5,5-Dimethyl-2-{2-methyl-8-[(2,3,6-trifluorobenzyl)oxy]imidazo[1,2-a]pyridin-3-yl}-4-propyl-5,7-dihydro-6H-pyrrolo[2,3-d]pyrimidin-6-one] | – | 3
Cc1nc2c(OCc3c(F)ccc(F)c3F)cccn2c1-c1nc(CCC2CC2)c2c(n1)NC(=O)C2(C)C [Example 71, 4-(2-Cyclopropylethyl)-5,5-dimethyl-2-{2-methyl-8-[(2,3,6-trifluorobenzyl)oxy]imidazo[1,2-a]pyridin-3-yl}-5,7-dihydro-6H-pyrrolo[2,3-d]pyrimidin-6-one] | 200 | –
Cc1ncc(-c2nc(-c3c(C)nc4c(OCc5c(F)ccc(F)c5F)cccn34)nc3c2C(C)(C)C(=O)N3)s1 [Example 73, 5,5-Dimethyl-4-(2-methyl-1,3-thiazol-5-yl)-2-{2-methyl-8-[(2,3,6-trifluorobenzyl)oxy]imidazo[1,2-a]pyridin-3-yl}-5,7-dihydro-6H-pyrrolo[2,3-d]pyrimidin-6-one] | 22 | –
Cc1nc2c(OCc3c(F)ccc(F)c3F)cccn2c1-c1nc2c(c(C(=O)NCC(C)(N)C(F)(F)F)n1)C(C)(C)C(=O)N2 (racemic) [Example 57, rac-N-(2-amino-3,3,3-trifluoro-2-methylpropyl)-5,5-dimethyl-2-{2-methyl-8-[(2,3,6-trifluorobenzyl)oxy]imidazo[1,2-a]pyridin-3-yl}-6-oxo-6,7-dihydro-5H-pyrro1o[2,3-d]pyrimidine-4-carboxamide] | 3 | –

Reference: patent US9688699B2, “3-(pyrimidine-2-yl)imidazo[1,2-a]pyridines” (Bayer Pharma Aktiengesellschaft, priority 2014, dated 2017)
